For orientation: refractive index means a measure of how strongly the sample bends light. By mass density is commonly meant mass per unit of volume.

For three compounds, refractive index and mass density results are on record in the NIST ThermoML archive (doi:10.1016/j.fluid.2012.11.018).

SMILES strings stand for the structures. Numbers after ± are expanded uncertainties.

The nature of data set [1]: refractive index (Na D-line) (dimensionless). The settings on record: 298.2 K; 101.33 kPa; Liquid; Standard Abbe refractometry.
For data set [2] the following is noted: 298.2 K; 101.33 kPa; Liquid; Vibrating tube method.

On to `CC1CN1` (stereo not given) [2-methylaziridine], for which, in data set [1], the refractive index is reported as 1.4116 ± 0.0006. Besides, the mass density in data set [2] was 802.23 ± 0.8 kg/m3.

Turning to `ClC(Cl)Cl` [trichloromethane], in data set [1], the refractive index is on record as 1.4456 ± 0.0004. In addition, in data set [2], the mass density came out at 1480.34 ± 0.34 kg/m3. `O` [water]: the refractive index in data set [1] is on record as 1.333 ± 0.0004.
